Reference: PMC8666671, “Fine-tuning spermidine binding modes in the putrescine binding protein PotF” (The Journal of Biological Chemistry, 2021)
Numbering of substitutions follows the chain as printed. Where “and” joins values, the source holds several entries; their conditions need not be identical. Equal values may be shown once. Read-outs that look alike come from different tables or passages of the source.

Assays:
PotF/D–E39D–F88L–S247D = target: T1, PotF/D–E39D–F88L–S247D (Escherichia coli, UniProt P31133, A182D/F276W/F88L/L348Q/S38T/S87Y); assay: ITC, PotF/D–E39D–F88L–S247D; assay type: binding; conditions: 293 K; for n: ITC binding stoichiometry; for ΔG / ΔH / −TΔS / Kd: ITC; for Kd: 50 mM Tris pH 8, 300 mM NaCl, biological triplicates
T1 construct: without the N-terminal signal peptide; made in house; host or cells: E. coli BL21 (DE3)
T1 sequence (P31133 27-370 S38T/S87Y/F88L/A182D/F276W/L348Q): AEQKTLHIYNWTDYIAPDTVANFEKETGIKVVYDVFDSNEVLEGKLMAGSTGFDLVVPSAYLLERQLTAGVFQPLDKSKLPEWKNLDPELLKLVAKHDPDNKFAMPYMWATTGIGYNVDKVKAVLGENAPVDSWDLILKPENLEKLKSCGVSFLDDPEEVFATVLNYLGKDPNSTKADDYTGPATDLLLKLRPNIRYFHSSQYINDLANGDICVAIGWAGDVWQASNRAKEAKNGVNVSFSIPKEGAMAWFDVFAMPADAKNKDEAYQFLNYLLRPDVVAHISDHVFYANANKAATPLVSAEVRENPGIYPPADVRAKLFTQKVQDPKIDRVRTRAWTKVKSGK
Protocol: (§1) Ligands were always freshly prepared in the exact same buffer as was used for the size exclusion run. Samples were degassed, and temperature was equilibrated using a degassing station (TA Instruments). About 400 μl protein sample of different concentrations (Table S5) depending on affinity was transferred into the sample cell of a nanoITC (TA Instruments), and 50 μl of about tenfold concentrated ligand solution was loaded into the injection needle. Multiple injection measurements were carried out at 293 K, 300 rpm stirring rate, and 250 s spacings between each 2 μl injection. The heat quantity past injection was determined by integration of the measured peaks. Every protein–ligand combination was measured as biological triplicate. Subtraction of heat of dilution measurements, peak integration, and one site binding fits were done with NanoAnalyze (TA Instruments). Reported errors are the errors between fits of the measured triplicates.

PotF_Abox_Dist = target: T2, PotF_Abox_Dist (Escherichia coli, UniProt P31133, A182D/F276W/L348Q/S87Y); assay: ITC, PotF_Abox_Dist (S87Y, A182D, L348Q, F276W); assay type: binding; conditions: 293 K
T2 construct: without the N-terminal signal peptide; made in house; host or cells: E. coli BL21 (DE3)
T2 sequence (P31133 27-370 S87Y/A182D/F276W/L348Q): T1 sequence (P31133 27-370 S38T/S87Y/F88L/A182D/F276W/L348Q) with T12S, L62F
Protocol: as §1

PotF = target: PotF; design: method as in PMID 33406388; conditions: PotF wildtype, cited from earlier work
PotF_Abox_Prox = target: T3, PotF_Abox_Prox (Escherichia coli, UniProt P31133, D247S/D39E/F276W/S38T); assay: ITC, PotF_Abox_Prox (S38T, D39E, D247S, F276W); assay type: binding; conditions: 293 K, 50 mM Tris pH 8, 300 mM NaCl, biological triplicates
T3 construct: without the N-terminal signal peptide; made in house; host or cells: E. coli BL21 (DE3)
T3 sequence (P31133 27-370 S38T/D39E/D247S/F276W): T1 sequence (P31133 27-370 S38T/S87Y/F88L/A182D/F276W/L348Q) with D13E, Y61S, L62F, D156A, D221S, Q322L
Protocol: as §1

[1] = target: T4, PotF/D–E39D–Y87S–F88Y–S247D (Escherichia coli, UniProt P31133, A182D/F276W/F88Y/L348Q/S38T); assay: ITC, PotF/D–E39D–Y87S–F88Y–S247D; assay type: binding; conditions: 293 K; for n: ITC binding stoichiometry; for ΔG / ΔH / −TΔS / Kd: ITC
T4 construct: without the N-terminal signal peptide; made in house; host or cells: E. coli BL21 (DE3)
T4 sequence (P31133 27-370 S38T/F88Y/A182D/F276W/L348Q): T1 sequence (P31133 27-370 S38T/S87Y/F88L/A182D/F276W/L348Q) with Y61S, L62Y
Protocol: as §1

PotF_Abox-A182D = target: T5, PotF_Abox-A182D (Escherichia coli, UniProt P31133, A182D/F276W); assay: ITC, PotF_Abox-A182D (F276W, A182D); assay type: binding; conditions: for n: ITC binding stoichiometry; for n / Kd / ΔG / ΔH / −TΔS: 293 K, PotF_Abox-A182D; for Kd / ΔG / ΔH / −TΔS: ITC; for Kd: 50 mM Tris pH 8, 300 mM NaCl, biological triplicates
T5 construct: without the N-terminal signal peptide; made in house; host or cells: E. coli BL21 (DE3)
T5 sequence (P31133 27-370 A182D/F276W): T1 sequence (P31133 27-370 S38T/S87Y/F88L/A182D/F276W/L348Q) with T12S, Y61S, L62F, Q322L
Protocol: as §1

[2] = ITC, 50 mM Tris pH 8, 300 mM NaCl, biological triplicates

NCCCCNCCCN [SPD, spermidine]
n (PotF/D–E39D–F88L–S247D): 0.93 ± 0.01 | ΔG (PotF/D–E39D–F88L–S247D): -7.35 ± 0.09 kcal/mol | ΔH (PotF/D–E39D–F88L–S247D): -4.19 ± 0.06 kcal/mol | −TΔS (PotF/D–E39D–F88L–S247D): -3.17 ± 0.10 kcal/mol | Kd (PotF/D–E39D–F88L–S247D): 3.33 ± 0.53 µM | n (PotF_Abox_Dist; ITC binding stoichiometry): 0.94 ± 0.00 | ΔG (PotF_Abox_Dist; ITC): -6.85 ± 0.02 kcal/mol | ΔH (PotF_Abox_Dist; ITC): -5.28 ± 0.07 kcal/mol | −TΔS (PotF_Abox_Dist; ITC): -1.57 ± 0.09 kcal/mol | Kd (PotF_Abox_Dist; [2]): ~7.8 µM and 7.8 µM and 7.77 µM | Kd (PotF; ITC): 29.7 ± 1.15 µM | ΔG (PotF; ITC): -6.07 ± 0.02 kcal/mol | ΔH (PotF; ITC): -3.65 ± 0.06 kcal/mol | −TΔS (PotF; ITC): -2.42 ± 0.04 kcal/mol | KD (PotF_Abox_Prox): very low | n [1]: 0.91 ± 0.02 | ΔG [1]: -8.17 ± 0.17 kcal/mol | ΔH [1]: -5.46 ± 0.08 kcal/mol | −TΔS [1]: -2.71 ± 0.16 kcal/mol | Kd ([1]; read-out: SPD affinity (KD)): 0.84 µM | n (PotF_Abox-A182D): 0.91 ± 0.02 | Kd (PotF_Abox-A182D): ~3.1 µM and 3.13 µM | ΔG (PotF_Abox-A182D): -7.39 ± 0.11 kcal/mol | ΔH (PotF_Abox-A182D): -4.37 ± 0.20 kcal/mol | −TΔS (PotF_Abox-A182D): -3.02 ± 0.15 kcal/mol

NCCCCN [PUT, putrescine]
n (PotF/D–E39D–F88L–S247D): 0.90 ± 0.01 | ΔG (PotF/D–E39D–F88L–S247D): -4.97 ± 0.13 kcal/mol | ΔH (PotF/D–E39D–F88L–S247D): -5.54 ± 0.73 kcal/mol | −TΔS (PotF/D–E39D–F88L–S247D): 0.57 ± 0.86 kcal/mol | Kd (PotF/D–E39D–F88L–S247D): 203 ± 43.1 µM | KD (PotF_Abox_Dist; [2]): not detectable | Kd (PotF; ITC): 0.07 ± 0.04 µM | ΔG (PotF; ITC): -9.74 ± 0.40 kcal/mol | ΔH (PotF; ITC): -23.02 ± 0.12 kcal/mol | −TΔS (PotF; ITC): 13.28 ± 0.52 kcal/mol | Kd (PotF): ~0.068 µM | KD (PotF_Abox_Prox): no binding | n [1]: 0.90 ± 0.01 | ΔG [1]: -5.51 ± 0.02 kcal/mol | ΔH [1]: -4.15 ± 0.05 kcal/mol | −TΔS [1]: -1.36 ± 0.05 kcal/mol | Kd ([1]; 50 mM Tris pH 8, 300 mM NaCl, biological triplicates, read-out: KD): 77.9 ± 3.17 µM | n (PotF_Abox-A182D): 0.91 ± 0.01 | Kd (PotF_Abox-A182D): ~83 µM and 83.2 µM | ΔG (PotF_Abox-A182D): -5.45 ± 0.02 kcal/mol | ΔH (PotF_Abox-A182D): -9.79 ± 0.09 kcal/mol | −TΔS (PotF_Abox-A182D): 4.33 ± 0.08 kcal/mol | decrease of PUT affinity (PotF_Abox-A182D; PotF_Abox-A182D compared with wildtype PotF): around 1200 fold
